According to the supplement of paper PMC10307832:

Legend:
Assay in all cases: relative viability (nuclei count vs DMSO), 5 days (fraction); higher = more cells survive
NCI-H1666 = system: NCI-H1666
Summary of the method: (§1)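 Nuclei were stained with Hoechst during a one-step fixation (final 0.05% Triton X-100, 1% formaldehyde, 1 ug/ml Hoechst) carried out 5 days after dosing, then counted on 4× images. The cells, lung cancer lines in 1536-well plates, had been dosed by pin tool the day after seeding with one drug alone or a fixed anchor-drug dose plus five library-drug doses (not always all listed) in √10 steps. Relative viability is the nuclei count in treated wells divided by that in vehicle wells, and each value is the median of duplicate plates.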

LU99A = system: LU99A
Summary of the method: as §1

NCI-H2085 = system: NCI-H2085
Summary of the method: as §1

NCI-H2009 = system: NCI-H2009
Summary of the method: as §1

A-427 = system: A-427
Summary of the method: as §1

NCI-H1944 = system: NCI-H1944
Summary of the method: as §1

HCC-78 = system: HCC-78
Summary of the method: as §1

UMC-11 = system: UMC-11
Summary of the method: as §1

LXF-289 = system: LXF-289
Summary of the method: as §1

SW 900 = system: SW 900
Summary of the method: as §1

NCI-H1915 = system: NCI-H1915
Summary of the method: as §1

LC-2-ad = system: LC-2-ad
Summary of the method: as §1

NCI-H460 = system: NCI-H460
Summary of the method: as §1

NCI-H1793 = system: NCI-H1793
Summary of the method: as §1

EPLC-272H = system: EPLC-272H
Summary of the method: as §1

HOP-62 = system: HOP-62
Summary of the method: as §1

NCI-H358 = system: NCI-H358
Summary of the method: as §1

COR-L 105 = system: COR-L 105
Summary of the method: as §1

HCC-366 = system: HCC-366
Summary of the method: as §1

SK-LU-1 = system: SK-LU-1
Summary of the method: as §1

NCI-H2170 = system: NCI-H2170
Summary of the method: as §1

O=c1cc(-c2cccc3c2Sc2ccccc2S3)oc(N2CCOCC2)c1 + O=C(CCCCCCC(=O)Nc1ccccc1)NO [Vorinostat] (partner 1 µM)
relative viability (NCI-H1666; first compound 0.08 µM): 1
relative viability (NCI-H1666; first compound 0.253 µM): 1.15
relative viability (NCI-H1666; first compound 0.8 µM): 0.963
relative viability (NCI-H1666; first compound 2.53 µM): 1.02
relative viability (NCI-H1666; first compound 8 µM): 1.06
relative viability (LU99A; first compound 0.08 µM): 0.429
relative viability (LU99A; first compound 0.253 µM): 0.499
relative viability (LU99A; first compound 0.8 µM): 0.639
relative viability (LU99A; first compound 2.53 µM): 0.514
relative viability (LU99A; first compound 8 µM): 0.669
relative viability (NCI-H2085; first compound 0.08 µM): 0.739
relative viability (NCI-H2085; first compound 0.253 µM): 0.825
relative viability (NCI-H2085; first compound 0.8 µM): 0.687
relative viability (NCI-H2085; first compound 2.53 µM): 0.759
relative viability (NCI-H2085; first compound 8 µM): 0.612
relative viability (NCI-H2009; first compound 0.08 µM): 0.761
relative viability (NCI-H2009; first compound 0.253 µM): 0.751
relative viability (NCI-H2009; first compound 0.8 µM): 0.667
relative viability (NCI-H2009; first compound 2.53 µM): 0.684
relative viability (NCI-H2009; first compound 8 µM): 0.699
relative viability (A-427; first compound 0.08 µM): 0.863
relative viability (A-427; first compound 0.253 µM): 0.931
relative viability (A-427; first compound 0.8 µM): 0.897
relative viability (A-427; first compound 2.53 µM): 0.834
relative viability (A-427; first compound 8 µM): 0.829
relative viability (NCI-H1944; first compound 0.08 µM): 0.58
relative viability (NCI-H1944; first compound 0.253 µM): 0.586
relative viability (NCI-H1944; first compound 0.8 µM): 0.513
relative viability (NCI-H1944; first compound 2.53 µM): 0.544
relative viability (NCI-H1944; first compound 8 µM): 0.596
relative viability (HCC-78; first compound 0.08 µM): 0.478
relative viability (HCC-78; first compound 0.253 µM): 0.529
relative viability (HCC-78; first compound 0.8 µM): 0.376
relative viability (HCC-78; first compound 2.53 µM): 0.39
relative viability (HCC-78; first compound 8 µM): 0.474
relative viability (UMC-11; first compound 0.08 µM): 0.312
relative viability (UMC-11; first compound 0.253 µM): 0.454
relative viability (UMC-11; first compound 0.8 µM): 0.362
relative viability (UMC-11; first compound 2.53 µM): 0.394
relative viability (UMC-11; first compound 8 µM): 0.336
relative viability (LXF-289; first compound 0.08 µM): 0.902
relative viability (LXF-289; first compound 0.253 µM): 0.784
relative viability (LXF-289; first compound 0.8 µM): 0.782
relative viability (LXF-289; first compound 2.53 µM): 0.661
relative viability (LXF-289; first compound 8 µM): 0.819
relative viability (SW 900; first compound 0.253 µM): 0.529
relative viability (SW 900; first compound 0.8 µM): 0.493
relative viability (SW 900; first compound 2.53 µM): 0.427
relative viability (SW 900; first compound 8 µM): 0.393
relative viability (NCI-H1915; first compound 0.08 µM): 0.549
relative viability (NCI-H1915; first compound 0.253 µM): 0.492
relative viability (NCI-H1915; first compound 0.8 µM): 0.592
relative viability (NCI-H1915; first compound 2.53 µM): 0.517
relative viability (NCI-H1915; first compound 8 µM): 0.562
relative viability (LC-2-ad; first compound 0.08 µM): 0.683
relative viability (LC-2-ad; first compound 0.253 µM): 0.835
relative viability (LC-2-ad; first compound 0.8 µM): 0.684
relative viability (LC-2-ad; first compound 2.53 µM): 0.695
relative viability (LC-2-ad; first compound 8 µM): 0.69
relative viability (NCI-H460; first compound 0.08 µM): 0.892
relative viability (NCI-H460; first compound 0.253 µM): 1.49
relative viability (NCI-H460; first compound 0.8 µM): 0.772
relative viability (NCI-H460; first compound 2.53 µM): 0.692
relative viability (NCI-H460; first compound 8 µM): 1.04
relative viability (NCI-H1793; first compound 0.08 µM): 0.653
relative viability (NCI-H1793; first compound 0.253 µM): 0.846
relative viability (NCI-H1793; first compound 0.8 µM): 0.541
relative viability (NCI-H1793; first compound 2.53 µM): 0.627
relative viability (NCI-H1793; first compound 8 µM): 0.804
relative viability (EPLC-272H; first compound 0.08 µM): 0.449
relative viability (EPLC-272H; first compound 0.253 µM): 0.363
relative viability (EPLC-272H; first compound 0.8 µM): 0.291
relative viability (EPLC-272H; first compound 2.53 µM): 0.629
relative viability (EPLC-272H; first compound 8 µM): 0.441
relative viability (HOP-62; first compound 0.08 µM): 0.646
relative viability (HOP-62; first compound 0.253 µM): 0.832
relative viability (HOP-62; first compound 0.8 µM): 0.691
relative viability (HOP-62; first compound 2.53 µM): 0.661
relative viability (HOP-62; first compound 8 µM): 0.664
relative viability (NCI-H358; first compound 0.08 µM): 0.725
relative viability (NCI-H358; first compound 0.253 µM): 0.651
relative viability (NCI-H358; first compound 0.8 µM): 0.705
relative viability (NCI-H358; first compound 2.53 µM): 0.71
relative viability (NCI-H358; first compound 8 µM): 0.632
relative viability (COR-L 105; first compound 0.08 µM): 0.782
relative viability (COR-L 105; first compound 0.253 µM): 0.828
relative viability (COR-L 105; first compound 0.8 µM): 0.751
relative viability (COR-L 105; first compound 2.53 µM): 0.795
relative viability (COR-L 105; first compound 8 µM): 1.1
relative viability (HCC-366; first compound 0.08 µM): 0.347
relative viability (HCC-366; first compound 0.253 µM): 0.387
relative viability (HCC-366; first compound 0.8 µM): 0.297
relative viability (HCC-366; first compound 2.53 µM): 0.426
relative viability (HCC-366; first compound 8 µM): 0.42
relative viability (SK-LU-1; first compound 0.08 µM): 0.8
relative viability (SK-LU-1; first compound 0.253 µM): 0.894
relative viability (SK-LU-1; first compound 0.8 µM): 0.877
relative viability (SK-LU-1; first compound 2.53 µM): 0.709
relative viability (SK-LU-1; first compound 8 µM): 0.705
relative viability (NCI-H2170; first compound 0.08 µM): 0.857
relative viability (NCI-H2170; first compound 0.253 µM): 0.952
relative viability (NCI-H2170; first compound 0.8 µM): 0.92
relative viability (NCI-H2170; first compound 2.53 µM): 0.693
relative viability (NCI-H2170; first compound 8 µM): 0.932
